Measured values as given in patent US7348349B2, “Oxazole derivatives” (Hoffmann-La Roche Inc., priority 2002, dated 2008).
Read-outs that look alike come from different tables or passages of the source.

Experiments:
mouse PPARγ [1] = target: T1, mouse PPARγ (Mus musculus, UniProt P37238); test: Radioligand binding assay (SPA), GST-PPARγ-LBD; design: PPARγ (aa 174 to 476)
T1 sequence (P37238 204-505): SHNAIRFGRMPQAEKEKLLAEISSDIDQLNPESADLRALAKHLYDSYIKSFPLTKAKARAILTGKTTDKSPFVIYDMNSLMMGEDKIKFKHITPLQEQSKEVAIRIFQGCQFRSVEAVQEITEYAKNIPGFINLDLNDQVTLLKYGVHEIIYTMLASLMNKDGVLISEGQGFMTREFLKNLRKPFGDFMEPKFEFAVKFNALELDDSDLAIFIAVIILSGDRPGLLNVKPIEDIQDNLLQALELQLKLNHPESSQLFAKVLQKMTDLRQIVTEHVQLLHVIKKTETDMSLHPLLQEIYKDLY
Source text: (§1) Full-length cDNA clones for human PPARα and mouse PPARγ were obtained by RT-PCR from human adipose and mouse liver cRNA, respectively, cloned into plasmid vectors and verified by DNA sequencing. […] To accomplish this, the portions of the cloned sequences encoding the LBDs were amplified from the full-length clones by PCR and then subcloned into the plasmid vectors. Final clones were verified by DNA sequence analysis.
(§2) Induction, expression, and purification of GST-LBD fusion proteins were performed in E. coli strain BL21(pLysS) cells by standard methods (Ref: Current Protocols in Molecular Biology, Wiley Press, edited by Ausubel et al.).
(§3) PPARγ receptor binding was assayed in TKE50 (50 mM Tris-HCl, pH 8, 50 mM KCl, 2 mM EDTA, 0.1 mg/ml fatty acid-free BSA and 10 mM DTT). For each 96 well reaction an 140 ng equivalent of GST-PPARγ-LBD fusion protein was bound to 10 ug SPA beads (PharmaciaAmersham) in a final volume of 50 ul by shaking. The resulting slurry was incubated for 1 h at RT and centrifuged for 2 min at 1300 g. The supernatant containing unbound protein was removed and the semidry pellet containig the recptor-coated beads was resolved in 50 ul of TKE. For radioligand binding e.g. 10000 dpm 2(S)-(2-benzoyl-phenylamino)-3-{4-[1,1-ditritio-2-(5-methyl-2-phenyl-oxazol-4-yl)-ethoxy]-phenyl}-propionic acid in 50 ul were added, the reaction incubated at RT for 1 h and scintillation proximity counting performed. All binding assays were performed in 96 well plates and the amount of bound ligand measured on a Packard TopCount using OptiPlates (Packard). Nonspecific binding was determined in the presence of 10^−4 M unlabelled compound. Dose response curves were done in triplicates within a range of concentration from 10^−10 M to 10^−4 M.

human PPARα [2] = target: T2, human PPARα (Homo sapiens, UniProt Q07869); test: Radioligand binding assay, GST-PPARα-LBD
T2 construct: PPARγ (aa 174 to 476) and PPARα (aa 167 to 469); made in house; host or cells: E. coli BL21(pLysS)
T2 sequence (Q07869 167-468 limits assumed): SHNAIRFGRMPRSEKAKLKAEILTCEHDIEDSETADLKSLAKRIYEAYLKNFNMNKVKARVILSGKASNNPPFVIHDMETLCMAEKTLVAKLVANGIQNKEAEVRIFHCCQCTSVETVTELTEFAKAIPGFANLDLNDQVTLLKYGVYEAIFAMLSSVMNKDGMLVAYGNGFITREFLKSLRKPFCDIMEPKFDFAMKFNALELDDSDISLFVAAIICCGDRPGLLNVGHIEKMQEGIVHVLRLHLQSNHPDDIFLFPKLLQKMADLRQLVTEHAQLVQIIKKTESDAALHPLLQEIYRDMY
Source text: as §1, §2
PPARα receptor binding was assayed in TKE10 (10 mM Tris-HCl, pH 8, 50 mM KCl, 2 mM EDTA, 0.1 mg/ml fatty acid free BSA and 10 mM DTT). For each 96 well 2.4 ug equivalent of GST-PPARα-LBD fusion protein and radioligand, e.g. 40000 dpm 2(S)-(2-benzoyl-phenylamino)-3-{4-[1,1-ditritio-2-(5-methyl-2-phenyl-oxazol-4-yl)-ethoxy]-phenyl}-propionic acid, were incubated in 100 ul volume at RT for 2 hrs. Bound ligand was removed from unbound ligand by solid phase separation using MultiScreen plates (Millipore) filled with 80 ul of SG25 according to the manufacturer's recommendations.
as §3

human PPARα [3] = target: T2, human PPARα; test: Luciferase transcriptional reporter gene assay, pFA-PPARα-LBD in BHK21 cells; assay type: cell-based
Method: as §1
(§4) Baby hamster kidney cells (BHK21 ATCC CCL10) were grown in DMEM medium containing 10% FBS at 37° C. in a […] atmosphere. Cells were seeded in 6 well plates at a density of 10^5 Cells/well and then transiently batch-transfected with either the pFA-PPARγ-LBD or pFA-PPARα-LBD expression plasmids plus a reporter plasmid and an expression plasmid encoding the secretable form of alkaline phosphatase (SEAP) as a normalization control. […] Six hours following transfection, the cells were harvested by trypsinization and seeded in 96 well plates at a density of 10^4 cells/well. After 24 hours to allow attachment of cells, the medium was removed and replaced with 100 ul of phenol red-free medium containing the test substances or control ligands (final DMSO concentration: 0.1%). Following incubation of the cells for 24 hours with substances, 50 ul of the supernatant was recovered and analyzed for SEAP activity (Roche Molecular Biochemicals). The remainder of the supernatant was discarded, 50 ul PBS was added per well followed by one volume of Luciferase Constant-Light Reagent (Roche Molecular Biochemicals) to lyse the cells and initiate the luciferase reaction. Luminescence for both SEAP and luciferase was measured in a Packard TopCount. Luciferase activity was normalized to the SEAP control and transcriptional activation in the presence of a test substance was expressed as fold-activation over cells incubated in the absence of the substance. EC50 values were calculated using the XLfit program (ID Business Solutions Ltd. UK).

mouse PPARγ [4] = target: T1, mouse PPARγ; test: Luciferase transcriptional reporter gene assay, pFA-PPARγ-LBD in BHK21 cells; assay type: cell-based; design: PPARγ (aa 174 to 476) and PPARα (aa 167 to 469); expressed in transfected cells; host or cells: BHK21 (ATCC CCL10)
Method: as §1, §4

[5] = GST-PPARα-LBD, tritiated radioligand, RT 2 hrs, read-out: PPARα IC50
[6] = BHK21 cells transfected with pFA-PPARα-LBD, 24 hours incubation, read-out: PPARα EC50
[7] = GST-PPARγ-LBD on SPA beads, tritiated radioligand, RT 1 h, read-out: PPARγ IC50
[8] = BHK21 cells transfected with pFA-PPARγ-LBD, 24 hours incubation, read-out: PPARγ EC50

Compound	IC50 (mouse PPARγ [1]) [nM]	IC50 (human PPARα [2]; [5]) [nM]	EC50 (human PPARα [3]; [6]) [nM]	EC50 (mouse PPARγ [4]) [nM]	IC50 (mouse PPARγ [1]; [7]) [nM]	IC50 (human PPARα [2]) [nM]	EC50 (human PPARα [3]) [nM]	EC50 (mouse PPARγ [4]; [8]) [nM]	PPARα IC50 (human PPARα [2]; GST-PPARα-LBD, tritiated radioligand, RT 2 hrs)	PPARα EC50 (human PPARα [3]; BHK21 cells transfected with pFA-PPARα-LBD, 24 hours incubation)
CCO[C@@H](Cc1ccc(OCc2nc(-c3ccc(F)c(C)c3)oc2C)cc1CC)C(=O)O [Example 9, (S)-2-Ethoxy-3-{2-ethyl-4-[2-(4-fluoro-3-methyl-phenyl)-5-methyl-oxazol-4-ylmethoxy]-phenyl}-propionic acid]	129	196	21	33	–	–	–	–	–	–
CCO[C@@H](Cc1ccc(OCc2nc(-c3ccc(OC(C)C)cc3)oc2C)cc1Cl)C(=O)O [Example 17, (S)-3-{2-Chloro-4-[2-(4-isopropoxy-phenyl)-5-methyl-oxazol-4-ylmethoxy]-phenyl}-2-ethoxy-propionic acid]	31	73	186	174	–	–	–	–	–	–
CO[C@@H](Cc1ccc(OCCc2nc(-c3ccccc3)oc2C)cc1O)C(=O)O [Example 23, (S)-3-{2-Hydroxy-4-[2-(5-methyl-2-phenyl-oxazol-4-yl)-ethoxy]-phenyl}-2-methoxy-propionic acid]	–	–	–	–	48	52	306	138	–	–
CCO[C@@H](Cc1ccc(OCc2nc(-c3ccc(C(C)C)cc3)oc2C)cc1OC)C(=O)O [Example 25, (S)-2-Ethoxy-3-{4-[2-(4-isopropyl-phenyl)-5-methyl-oxazol-4-ylmethoxy]-2-methoxy-phenyl}-propionic acid]	129	177	26	75	–	–	–	–	–	–
CN(CCOc1ccc(CC2SC(=O)NC2=O)cc1)c1ccccn1 (centres unmarked) [Rosiglitazone, reference compound]	–	–	–	–	–	–	–	–	inactive	inactive

Continued, values first:

IC50 (mouse PPARγ [1]) [nM]	IC50 (human PPARα [2]; [5]) [nM]	EC50 (human PPARα [3]; [6]) [nM]	EC50 (mouse PPARγ [4]) [nM]	IC50 (mouse PPARγ [1]; [7]) [nM]	IC50 (human PPARα [2]) [nM]	EC50 (human PPARα [3]) [nM]	EC50 (mouse PPARγ [4]; [8]) [nM]	PPARα IC50 (human PPARα [2]; GST-PPARα-LBD, tritiated radioligand, RT 2 hrs)	PPARα EC50 (human PPARα [3]; BHK21 cells transfected with pFA-PPARα-LBD, 24 hours incubation)	Compound
58	30	163	115	–	–	–	–	–	–	CCO[C@@H](Cc1ccc(OCc2nc(-c3ccc(OC(C)C)cc3)oc2C)cc1C)C(=O)O [Example 2, (S)-2-Ethoxy-3-{4-[2-(4-isopropoxy-phenyl)-5-methyl-oxazol-4-ylmethoxy]-2-methyl-phenyl}-propionic acid]
506	87	57	87	–	–	–	–	–	–	CCO[C@@H](Cc1ccc(OCc2nc(-c3ccccc3)oc2C)cc1C)C(=O)O [Example 3, (S)-2-Ethoxy-3-[2-methyl-4-(5-methyl-2-phenyl-oxazol-4-ylmethoxy)-phenyl]-propionic acid]
146	155	38	124	–	–	–	–	–	–	CCO[C@@H](Cc1ccc(OCc2nc(-c3ccc(F)c(C)c3)oc2C)cc1C)C(=O)O [Example 5, (S)-2-Ethoxy-3-{4-[2-(4-fluoro-3-methyl-phenyl)-5-methyl-oxazol-4-ylmethoxy]-2-methyl-phenyl}-propionic acid]
1730	2380	213	678	–	–	–	–	–	–	CCO[C@@H](Cc1c(C)cc(OCc2nc(-c3ccccc3)oc2C)cc1C)C(=O)O [Example 29, (S)-3-[2,6-Dimethyl-4-(5-methyl-2-phenyl-oxazol-4-ylmethoxy)-phenyl]-2-ethoxy-propionic acid]
–	–	–	–	33	131	150	57	–	–	CCO[C@@H](Cc1ccc(OCCCc2nc(-c3ccccc3)oc2C)cc1C)C(=O)O [Example 43, (S)-2-Ethoxy-3-{2-methyl-4-[3-(5-methyl-2-phenyl-oxazol-4-yl)-propoxy]-phenyl}-propionic acid]
